Key:
[1] = Inhibition of pepsin from porcine gastric mucosa using Arg-Glu-(EDANS)- Ser-Gln-Asn-Tyr-Pro-Ile-Val-Gln-Lys-(DALBCYL)-Arg fluorogenic substrate preincubated for 1 hr measured after 1 hr at 1 min interval by fluorescence assay; parameters: species or system Sus scrofa
[2] = target: T1, Proprotein convertase subtilisin/kexin type 7 (Homo sapiens) (UniProt Q16549); test: Inhibition of recombinant type 8 subtilisin using Arg-Glu-(EDANS)- Ser-Gln-Asn-Tyr-Pro-Ile-Val-Gln-Lys-(DALBCYL)-Arg fluorogenic substrate at 1 ug/ml preincubated for 1 hr measured after 1 hr at 1 min interval by fluorescence assay
T1 sequence (whole entry): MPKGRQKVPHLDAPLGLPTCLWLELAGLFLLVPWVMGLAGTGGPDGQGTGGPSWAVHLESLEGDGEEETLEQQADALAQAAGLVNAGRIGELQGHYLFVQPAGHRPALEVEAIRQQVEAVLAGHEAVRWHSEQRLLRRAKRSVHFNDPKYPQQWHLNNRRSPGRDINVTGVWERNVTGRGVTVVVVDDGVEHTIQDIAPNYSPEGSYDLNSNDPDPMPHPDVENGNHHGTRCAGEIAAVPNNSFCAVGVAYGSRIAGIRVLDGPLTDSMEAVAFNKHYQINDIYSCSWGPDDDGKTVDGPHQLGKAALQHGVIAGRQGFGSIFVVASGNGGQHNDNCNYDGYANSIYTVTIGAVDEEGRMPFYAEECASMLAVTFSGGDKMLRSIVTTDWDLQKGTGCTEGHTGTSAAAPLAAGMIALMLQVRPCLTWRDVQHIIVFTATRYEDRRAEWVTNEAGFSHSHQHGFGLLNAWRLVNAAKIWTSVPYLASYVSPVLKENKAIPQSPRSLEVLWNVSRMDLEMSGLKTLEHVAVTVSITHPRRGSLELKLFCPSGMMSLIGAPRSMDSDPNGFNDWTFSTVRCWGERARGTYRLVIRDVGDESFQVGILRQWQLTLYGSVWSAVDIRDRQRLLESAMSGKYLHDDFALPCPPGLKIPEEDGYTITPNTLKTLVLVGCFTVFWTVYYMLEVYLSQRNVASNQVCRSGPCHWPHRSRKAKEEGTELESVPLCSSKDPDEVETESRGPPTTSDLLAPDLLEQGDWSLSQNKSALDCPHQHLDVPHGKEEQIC

[3] = target: T1, Proprotein convertase subtilisin/kexin type 7 (Homo sapiens); test: Inhibition of recombinant type 8 subtilisin using Arg-Glu-(EDANS)- Ser-Gln-Asn-Tyr-Pro-Ile-Val-Gln-Lys-(DALBCYL)-Arg fluorogenic substrate at 0.1 ug/ml preincubated for 1 hr measured after 1 hr at 1 min interval by fluorescence assay
[4] = target: T1, Proprotein convertase subtilisin/kexin type 7 (Homo sapiens); test: Inhibition of recombinant type 8 subtilisin using Arg-Glu-(EDANS)- Ser-Gln-Asn-Tyr-Pro-Ile-Val-Gln-Lys-(DALBCYL)-Arg fluorogenic substrate at 0.01 ug/ml preincubated for 1 hr measured after 1 hr at 1 min interval by fluorescence assay
[5] = target: T1, Proprotein convertase subtilisin/kexin type 7 (Homo sapiens); test: Inhibition of recombinant type 8 subtilisin using Arg-Glu-(EDANS)- Ser-Gln-Asn-Tyr-Pro-Ile-Val-Gln-Lys-(DALBCYL)-Arg fluorogenic substrate at 0.001 ug/ml preincubated for 1 hr measured after 1 hr at 1 min interval by fluorescence assay

Row | SMILES | IC50 [1] [µM] | inhibition [2] [%] | inhibition [3] [%] | inhibition [4] [%] | inhibition [5] [%]
1 | O=c1oc2ccccc2c(O)c1Cc1c(O)c2ccccc2oc1=O [DICUMAROL] | 4.57 | – | – | – | –
2 | CC(=O)CC(c1ccccc1)c1c(O)c2ccccc2oc1=O (stereo not drawn) [WARFARIN] | 0.00832 | – | – | – | –
3 | C=C(CO)[C@@]12O[C@@H]1[C@@]1(C)C(=CC2=O)[C@H](O)CC[C@@H]1C [XYLARENONE A] | 2.43 | < 10 | < 10 | < 10 | < 10
4 | C=C(CO)[C@@]12O[C@@H]1[C@@]1(C)C(=CC2=O)[C@H](OC(=O)C(C)CC(C)CC(C)CC)CC[C@@H]1C (stereo partly drawn) [XYLARENONE C] | 0.288 | – | – | – | –
5 | C=C(CO)[C@@]12O[C@@H]1[C@@]1(C)C(=CC2=O)[C@H](OC(=O)C(O)(CO)CC(C)CC(C)CC)CC[C@@H]1C (stereo partly drawn) [XYLARENONE D] | 115 | < 10 | < 10 | < 10 | < 10
6 | C=C(CO)[C@@]12O[C@@H]1[C@@]1(C)C(=CC2=O)[C@H](OC(=O)C(O)(CO)CC(C)CC(C)C(C)O)CC[C@@H]1C (stereo partly drawn) [XYLARENONE E] | 127 | < 10 | < 10 | < 10 | < 10
